Measurements: PubChem BioAssay AID328 (DTP/NCI, 2004)
Where “and” joins values, the source holds several entries; their conditions need not be identical. Identical values can stand only once. Inconclusive results and toxic doses are left out.

System: BDF1 mice, P388 leukemia ip, median survival T/C
Assay: NCI In Vivo Anticancer Drug Screen. Data for tumor model P388 Leukemia (intraperitoneal) in B6D2F1 (BDF1) mice
Details: endpoint: median survival time, higher = longer survival
Procedure, shortened: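 Each value expresses how treatment altered survival: treated-mouse outcome over vehicle-mouse outcome, both groups bearing the transplanted tumour.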

[1] = dose: 12.5 mg/kg/injection, schedule: Q04DX003 (ip), vehicle: Klucel (hydroxypropylcellulose) (HPC)
[2] = dose: 25.0 mg/kg/injection, schedule: Q04DX003 (ip), vehicle: Klucel (hydroxypropylcellulose) (HPC)
[3] = dose: 100.0 mg/kg/injection, schedule: Q01DX009 (ip), vehicle: saline with Tween-80
[4] = dose: 200.0 mg/kg/injection, schedule: Q01DX009 (ip), vehicle: saline with Tween-80
[5] = dose: 50.0 mg/kg/injection, schedule: Q04DX003 (ip), vehicle: saline
[6] = dose: 100.0 mg/kg/injection, schedule: Q04DX003 (ip), vehicle: saline
[7] = dose: 50.0 mg/kg/injection, schedule: Q01DX009 (ip), vehicle: saline
[8] = dose: 100.0 mg/kg/injection, schedule: Q01DX009 (ip), vehicle: saline
[9] = dose: 200.0 mg/kg/injection, schedule: Q01DX009 (ip), vehicle: saline
[10] = dose: 50.0 mg/kg/injection, schedule: Q01DX009 (ip), vehicle: saline with Tween-80

## ClC1C2c3ccccc3C(C1Cl)[n+]1ccccc12 (stereo not drawn)
dose: 8.75 mg/kg/injection, schedule: Q01DX009 (ip), vehicle: Klucel (hydroxypropylcellulose) (HPC)
  T/C: 100 % of control
[1]
  T/C: 100 % of control
dose: 17.5 mg/kg/injection, schedule: Q01DX009 (ip), vehicle: Klucel (hydroxypropylcellulose) (HPC)
  T/C: 100 % of control
[2]
  T/C: 95 % of control

## NC1(C(=O)O)CCCC1
dose: 20.0 mg/kg/injection, schedule: Q01DX010 (ip), vehicle: water
  T/C: 100 % of control
dose: 22.5 mg/kg/injection, schedule: Q01DX010 (ip), vehicle: saline
  T/C: 100 % of control and 120 % of control
dose: 25.0 mg/kg/injection, schedule: Q01DX009 (ip), vehicle: carboxymethylcellulose (CMC)
  T/C: 93 % of control
dose: 45.0 mg/kg/injection, schedule: Q01DX010 (ip), vehicle: saline
  T/C: 110 % of control
dose: 50.0 mg/kg/injection, schedule: Q01DX009 (ip), vehicle: carboxymethylcellulose (CMC)
  T/C: 92 % of control
dose: 80.0 mg/kg/injection, schedule: Q01DX010 (ip), vehicle: water
  T/C: 110 % of control
dose: 90.0 mg/kg/injection, schedule: Q01DX010 (ip), vehicle: saline
  T/C: 185 % of control
[3]
  T/C: 100 % of control
dose: 200.0 mg/kg/injection, schedule: Q01DX009 (ip), vehicle: carboxymethylcellulose (CMC)
  T/C: 87 % of control
[4]
  T/C: 90 % of control

## CC1(C)CCC23CCC4(C)C(CCC5C6(C)CCC(O)C(C)(C)C6CCC54C)C2C1OC3=O (stereo not drawn)
dose: 10.0 mg/kg/injection, schedule: Q01DX009 (ip), vehicle: Klucel (hydroxypropylcellulose) (HPC)
  T/C: 105 % of control
dose: 20.0 mg/kg/injection, schedule: Q01DX009 (ip), vehicle: Klucel (hydroxypropylcellulose) (HPC)
  T/C: 119 % of control
dose: 40.0 mg/kg/injection, schedule: Q01DX009 (ip), vehicle: Klucel (hydroxypropylcellulose) (HPC)
  T/C: 105 % of control

## CN=C1C=C(NC)C(F)(F)C1(F)F
dose: 6.25 mg/kg/injection, schedule: Q01DX009 (ip), vehicle: saline with Tween-80
  T/C: 95 % of control
dose: 12.5 mg/kg/injection, schedule: Q01DX009 (ip), vehicle: saline with Tween-80
  T/C: 100 % of control
[1]
  T/C: 100 % of control
dose: 25.0 mg/kg/injection, schedule: Q01DX009 (ip), vehicle: saline with Tween-80
  T/C: 100 % of control
[2]
  T/C: 100 % of control

## COCCCN=C(N)c1ccc(NC(=O)c2ccc(C(=O)Nc3ccc(C(N)=NCCCOC)cc3)cc2)cc1
dose: 0.22 mg/kg/injection, schedule: Q01DX009 (ip), vehicle: saline with Tween-80
  T/C: 120 % of control
dose: 0.5 mg/kg/injection, schedule: Q01DX009 (ip), vehicle: saline with Tween-80
  T/C: 116 % of control
dose: 0.66 mg/kg/injection, schedule: Q01DX009 (ip), vehicle: saline with Tween-80
  T/C: 150 % of control
dose: 1.0 mg/kg/injection, schedule: Q01DX009 (ip), vehicle: saline with Tween-80
  T/C: 156 % of control
dose: 1.5 mg/kg/injection, schedule: Q01DX009 (ip), vehicle: saline with Tween-80
  T/C: 176 % of control
dose: 1.78 mg/kg/injection, schedule: Q04DX003 (ip), vehicle: saline with Tween-80
  T/C: 118 % of control
dose: 2.25 mg/kg/injection, schedule: Q01DX009 (ip), vehicle: saline with Tween-80
  T/C: 194 % of control
dose: 3.75 mg/kg/injection, schedule: Q01DX009 (ip), vehicle: saline with Tween-80
  T/C: 231 % of control
dose: 4.0 mg/kg/injection, schedule: Q04DX003 (ip), vehicle: saline with Tween-80
  T/C: 122 % of control
dose: 7.5 mg/kg/injection, schedule: Q01DX009 (ip), vehicle: saline with Tween-80
  T/C: 113 % of control
dose: 15.0 mg/kg/injection, schedule: Q01DX009 (ip), vehicle: saline with Tween-80
  T/C: 90 % of control
dose: 15.0 mg/kg/injection, schedule: Q04DX003 (ip), vehicle: saline with Tween-80
  T/C: 159 % of control

## Cc1cc(Cl)c2ccccc2[n+]1C
dose: 25.0 mg/kg/injection, schedule: Q04DX003 (ip), vehicle: saline
  T/C: 96 % of control
[5]
  T/C: 88 % of control
[6]
  T/C: 103 % of control

## COc1c(O)cc2c(c1OC)-c1ccc(OC)c(=O)cc1[C@@H](NC(C)=O)CC2
dose: 0.62 mg/kg/injection, schedule: Q01DX009 (ip), vehicle: saline with Tween-80
  T/C: 114 % of control
dose: 0.63 mg/kg/injection, schedule: Q01DX009 (ip), vehicle: saline with Tween-80
  T/C: 159 % of control
dose: 1.25 mg/kg/injection, schedule: Q01DX009 (ip), vehicle: saline with Tween-80
  T/C: 210 % of control
dose: 2.5 mg/kg/injection, schedule: Q01DX009 (ip), vehicle: saline with Tween-80
  T/C: 236 % of control and 200 % of control
dose: 5.0 mg/kg/injection, schedule: Q01DX009 (ip), vehicle: saline with Tween-80
  T/C: 236 % of control and 222 % of control
dose: 10.0 mg/kg/injection, schedule: Q01DX009 (ip), vehicle: saline with Tween-80
  T/C: 210 % of control

## CS(=O)(=O)C(F)(F)C(F)(F)C(F)(F)C(F)(F)F
[7]
  T/C: 101 % of control
[8]
  T/C: 101 % of control
[9]
  T/C: 106 % of control

## O=C1NC(=O)N(c2ccccc2)C(=O)/C1=C/c1ccccc1
dose: 50.0 mg/kg/injection, schedule: Q01DX001 (ip), vehicle: saline sonified
  T/C: 110 % of control
dose: 100.0 mg/kg/injection, schedule: Q01DX001 (ip), vehicle: saline sonified
  T/C: 105 % of control
dose: 200.0 mg/kg/injection, schedule: Q01DX001 (ip), vehicle: saline sonified
  T/C: 100 % of control

## COc1cc(N)ccc1C(=O)O
dose: 0.39 mg/kg/injection, schedule: Q01DX009 (ip), vehicle: saline
  T/C: 103 % of control
dose: 0.78 mg/kg/injection, schedule: Q01DX009 (ip), vehicle: saline
  T/C: 99 % of control
dose: 3.12 mg/kg/injection, schedule: Q01DX009 (ip), vehicle: saline
  T/C: 115 % of control
[7]
  T/C: 95 % of control
[8]
  T/C: 101 % of control
[9]
  T/C: 96 % of control
dose: 400.0 mg/kg/injection, schedule: Q01DX009 (ip), vehicle: saline
  T/C: 104 % of control

## CN1CSC(=S)N(Cc2ccccc2)C1
[10]
  T/C: 90 % of control
[3]
  T/C: 90 % of control

## Nc1ccn(C2CC(O)C(CO)O2)c(=O)n1 (stereo not drawn)
dose: 2.3 mg/kg/injection, schedule: Q01DX009 (ip), vehicle: water
  T/C: 117 % of control
dose: 9.37 mg/kg/injection, schedule: Q01DX009 (ip), vehicle: water
  T/C: 117 % of control
dose: 18.75 mg/kg/injection, schedule: Q01DX009 (ip), vehicle: water
  T/C: 110 % of control

## CCCCSc1cc(Cc2cc(C)ccc2O)c(O)c(Cc2cc(C)ccc2O)c1
dose: 50.0 mg/kg/injection, schedule: Q01DX009 (ip), vehicle: other
  T/C: 107 % of control
dose: 100.0 mg/kg/injection, schedule: Q01DX009 (ip), vehicle: other
  T/C: 107 % of control

## O=C1C(CCO)SC(=S)N1c1ccccc1 (stereo not drawn)
[10]
  T/C: 106 % of control
[3]
  T/C: 103 % of control
[4]
  T/C: 102 % of control

## CC(C)(C)OC(=O)NC(Cc1cncn1Cc1ccccc1)C(=O)NC(Cc1c[nH]c2ccccc12)C(=O)OCc1ccccc1 (stereo not drawn)
[5]
  T/C: 105 % of control
[6]
  T/C: 106 % of control
dose: 200.0 mg/kg/injection, schedule: Q04DX003 (ip), vehicle: saline
  T/C: 102 % of control
dose: 400.0 mg/kg/injection, schedule: Q04DX003 (ip), vehicle: saline
  T/C: 100 % of control

## CC1Cc2c(Cl)cc(C(=O)NC(Cc3ccccc3)C(=O)O)c(O)c2C(=O)O1 (stereo not drawn)
dose: 0.25 mg/kg/injection, schedule: Q01DX009 (ip), vehicle: saline
  T/C: 98 % of control
dose: 0.5 mg/kg/injection, schedule: Q01DX009 (ip), vehicle: saline
  T/C: 116 % of control
dose: 1.0 mg/kg/injection, schedule: Q01DX009 (ip), vehicle: saline
  T/C: 115 % of control

## O=C(NCCCl)OCC(F)(F)F
dose: 50.0 mg/kg/injection, schedule: Q01DX005 (ip), vehicle: Klucel (hydroxypropylcellulose) (HPC)
  T/C: 113 % of control
dose: 100.0 mg/kg/injection, schedule: Q01DX005 (ip), vehicle: Klucel (hydroxypropylcellulose) (HPC)
  T/C: 97 % of control
dose: 200.0 mg/kg/injection, schedule: Q01DX005 (ip), vehicle: Klucel (hydroxypropylcellulose) (HPC)
  T/C: 108 % of control

## COc1ccc2c(c1O)-c1cccc3c1[C@@H](C2)N(CCCl)CC3
dose: 25.0 mg/kg/injection, schedule: Q04DX003 (ip), vehicle: saline with Tween-80
  T/C: 161 % of control
dose: 50.0 mg/kg/injection, schedule: Q04DX003 (ip), vehicle: saline with Tween-80
  T/C: 161 % of control

## Cc1cccc(NC2=C(C#N)C(=O)NC3(CCCC3)S2)c1
[10]
  T/C: 119 % of control
[3]
  T/C: 103 % of control
[4]
  T/C: 100 % of control

## C(CCC1CO1)CC1CO1 (stereo not drawn)
dose: 50.0 mg/kg/injection, schedule: Q04DX005 (ip), vehicle: saline with Tween-80
  T/C: 115 % of control
dose: 200.0 mg/kg/injection, schedule: Q04DX002 (ip), vehicle: saline with Tween-80
  T/C: 173 % of control
